IC50 data for one compound are collected here from paper PMC3524753, “SU11652 Inhibits tyrosine kinase activity of FLT3 and growth of MV-4-11 cells” (Journal of Hematology & Oncology, 2012).

What all share (experiment): in vitro kinase assay with GST-FLT3S substrate, anti-phosphotyrosine immunoblot
What all share (assay type): biochemical
Background: A western blot detects proteins with antibodies after separation by electrophoresis.

In assay [1] the target is T1, FLT3 (FMS-like tyrosine kinase 3) (Homo sapiens, UniProt P36888, D835Y).
T1 construct: catalytic domain of FLT3 D835Y
T1 sequence (P36888 564-993 D835Y limits assumed): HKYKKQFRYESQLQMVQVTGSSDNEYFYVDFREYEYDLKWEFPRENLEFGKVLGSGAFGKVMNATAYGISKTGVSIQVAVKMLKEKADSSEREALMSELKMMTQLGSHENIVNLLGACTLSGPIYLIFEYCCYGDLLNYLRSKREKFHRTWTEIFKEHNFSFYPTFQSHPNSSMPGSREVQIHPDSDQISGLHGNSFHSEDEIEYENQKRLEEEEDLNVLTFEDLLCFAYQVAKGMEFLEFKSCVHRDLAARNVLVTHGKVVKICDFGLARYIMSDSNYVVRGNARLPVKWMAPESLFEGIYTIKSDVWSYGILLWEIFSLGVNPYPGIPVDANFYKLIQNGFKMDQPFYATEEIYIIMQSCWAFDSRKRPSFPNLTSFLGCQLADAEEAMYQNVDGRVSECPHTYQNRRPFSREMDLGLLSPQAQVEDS

Assay [2] has as its target T2, FLT3 (FMS-like tyrosine kinase 3) (Homo sapiens, UniProt P36888, D835H).
T2 construct: catalytic domain of FLT3 D835H
T2 sequence (P36888 564-993 D835H limits assumed): T1 sequence (P36888 564-993 D835Y limits assumed) with Y272H

Assay [3] deals with T3, FLT3 (FMS-like tyrosine kinase 3) (Homo sapiens, UniProt P36888).
T3 construct: catalytic domain of wild type FLT3
T3 sequence (P36888 564-993 limits assumed): T1 sequence (P36888 564-993 D835Y limits assumed) with Y272D

Structures are written as SMILES. Positions count from the first letter of the chain named. pIC50: −log10 of the molar value.

`CCN(CC)CCNC(=O)c1c(C)[nH]c(/C=C2\C(=O)Nc3ccc(Cl)cc32)c1C` [SU11652]: the negative logarithm of the IC50 (pIC50) in assay [1] is 7.80; in assay [2] it was 7.49; in assay [3], around 8.82.

As usually defined, the pIC50 is the negative decadic logarithm of the IC50, by convention in mol/L.
